Holding throughout (format): cell-based, Staphylococcus aureus
One assay deals with S. aureus 8325 ΔXV. The assay is described as follows: Antimicrobial susceptibility test (VITEK 2 system). The following applies: for Susceptibility of 8325 ΔXV mutant compared with parental strain: 8325 ΔXV vs 8325; for Antimicrobial susceptibility (R/S) / MIC, Minimal inhibitory concentration: strain 8325 ΔXV. Here is the method: (§1) Antibiotic sensitivity tests were performed at the University Clinic of Navarra. Antibiotics routinely used in clinic for treatment of S. aureus infections were tested by VITEK 2 system. • Growth Kinetics Analysis

In a further assay the test system is S. aureus MW2 ΔXV. Nature of the assay: Antimicrobial susceptibility test (VITEK 2 system). The following applies: for Antimicrobial susceptibility (R/S) / MIC, Minimal inhibitory concentration: strain MW2 ΔXV; for Susceptibility of MW2 ΔXV mutant compared with parental strain: MW2 ΔXV vs MW2. Here is the method: as §1
For another assay, the system named is S. aureus MW2. The following applies: strain MW2. The procedure: as §1
A further assay concerns S. aureus 8325. The procedure: as §1

Read-outs that look alike come from different tables or passages of the source. Marks after values point to notes of the source that are not given here.
Throughout, for Antimicrobial susceptibility (R/S): key: R: resistant; S: susceptible.

Turning to `CC1(C)S[C@@H]2[C@H](NC(=O)[C@H](N)c3ccccc3)C(=O)N2[C@H]1C(=O)O` [Ampicillin], in the assay with S. aureus 8325 ΔXV, the “Susceptibility of 8325 ΔXV mutant compared with parental strain” value is recorded as “higher susceptibility”. Moreover, the “Antimicrobial susceptibility (R/S)” value is on record as “S” in the assay with S. aureus 8325 ΔXV, “R” with S. aureus MW2 ΔXV, “R” with S. aureus MW2 and “R” with S. aureus 8325 (strain 8325).
For `CC[C@H]1OC(=O)[C@H](C)[C@@H](O[C@H]2C[C@@](C)(OC)[C@@H](O)[C@H](C)O2)[C@H](C)[C@@H](O[C@@H]2O[C@H](C)C[C@H](N(C)C)[C@H]2O)[C@](C)(O)C[C@@H](C)CN(C)[C@H](C)[C@@H](O)[C@]1(C)O` [Azithromycin], the “Antimicrobial susceptibility (R/S)” value in the assay on S. aureus 8325 ΔXV, in the assay with S. aureus MW2 ΔXV, with S. aureus MW2 and in the assay on S. aureus 8325 (strain 8325) was “S” each time.
As to `CC1(C)S[C@@H]2[C@H](NC(=O)Cc3ccccc3)C(=O)N2[C@H]1C(=O)O` [Bencilpenicillin], in the assay on S. aureus 8325 ΔXV, the “Susceptibility of 8325 ΔXV mutant compared with parental strain” value was “higher susceptibility”. Besides, the “Antimicrobial susceptibility (R/S)” value in the assay with S. aureus 8325 ΔXV was “S”; with S. aureus MW2 ΔXV, “R”; with S. aureus MW2 it was “R”; in the assay with S. aureus 8325 (strain 8325), “R”. For the same molecule, the “MIC, Minimal inhibitory concentration” value with S. aureus 8325 ΔXV is reported as “(0.12)”; in the assay on S. aureus 8325 (strain 8325), “(0.25)”.
As to `CC(=O)OCC1=C(C(=O)O)N2C(=O)[C@@H](NC(=O)Cc3cccs3)[C@H]2SC1` [Cefalotin], the “Antimicrobial susceptibility (R/S)” value in the assay on S. aureus 8325 ΔXV is given as “S”; in the assay with S. aureus MW2 ΔXV, “R”; in the assay with S. aureus MW2 it was “R”; with S. aureus 8325 (strain 8325) it was “S”.
For the molecule `CO[C@@]1(NC(=O)Cc2cccs2)C(=O)N2C(C(=O)O)=C(COC(N)=O)CS[C@@H]21` [Cefoxitin], the “Antimicrobial susceptibility (R/S)” value in the assay with S. aureus 8325 ΔXV was “S”; in the assay with S. aureus MW2 ΔXV it was “S”; with S. aureus MW2, “R”; in the assay on S. aureus 8325 (strain 8325), “S”. The “Susceptibility of MW2 ΔXV mutant compared with parental strain” value with S. aureus MW2 ΔXV was “more susceptible”.
On to `CO/N=C(\C(=O)N[C@@H]1C(=O)N2C(C(=O)O)=C(COC(N)=O)CS[C@H]12)c1ccco1` [Cefuroxime], for which the “Antimicrobial susceptibility (R/S)” value in the assay on S. aureus 8325 ΔXV is “S”; in the assay with S. aureus MW2 ΔXV it was “R”; with S. aureus MW2 it was “R”; in the assay with S. aureus 8325 (strain 8325), “S”.
On to `O=C(N[C@H](CO)[C@H](O)c1ccc([N+](=O)[O-])cc1)C(Cl)Cl` [Chloramphenicol], for which the “Antimicrobial susceptibility (R/S)” value in the assay on S. aureus 8325 ΔXV, with S. aureus MW2 ΔXV, with S. aureus MW2 and in the assay with S. aureus 8325 (strain 8325) was “S” each time.
For the molecule `CC[C@H]1OC(=O)[C@H](C)[C@@H](O[C@H]2C[C@@](C)(OC)[C@@H](O)[C@H](C)O2)[C@H](C)[C@@H](O[C@@H]2O[C@H](C)C[C@H](N(C)C)[C@H]2O)[C@](C)(OC)C[C@@H](C)C(=O)[C@H](C)[C@@H](O)[C@]1(C)O` [Clarithromycin], the “Antimicrobial susceptibility (R/S)” value with S. aureus 8325 ΔXV, with S. aureus MW2 ΔXV, in the assay on S. aureus MW2 and in the assay with S. aureus 8325 (strain 8325) was “S” in each case.
Turning to `CCC[C@@H]1C[C@@H](C(=O)N[C@@H]([C@H]2O[C@H](SC)[C@H](O)[C@@H](O)[C@H]2O)[C@H](C)Cl)N(C)C1` [Clindamycin], the “Antimicrobial susceptibility (R/S)” value in the assay with S. aureus 8325 ΔXV, with S. aureus MW2 ΔXV, in the assay with S. aureus MW2 and with S. aureus 8325 (strain 8325) was “S” each time.
On to `Cc1onc(-c2ccccc2Cl)c1C(=O)N[C@@H]1C(=O)N2[C@@H]1SC(C)(C)[C@@H]2C(=O)O` [Cloxacillin], for which the “Antimicrobial susceptibility (R/S)” value with S. aureus 8325 ΔXV was “S”; with S. aureus MW2 ΔXV, “R”; with S. aureus MW2 it was “R”; with S. aureus 8325 (strain 8325), “S”.
For the molecule `CC[C@H]1OC(=O)[C@H](C)[C@@H](O[C@H]2C[C@@](C)(OC)[C@@H](O)[C@H](C)O2)[C@H](C)[C@@H](O[C@@H]2O[C@H](C)C[C@H](N(C)C)[C@H]2O)[C@](C)(O)C[C@@H](C)C(=O)[C@H](C)[C@@H](O)[C@]1(C)O` [Erithromycin], the “Antimicrobial susceptibility (R/S)” value in the assay with S. aureus 8325 ΔXV, in the assay on S. aureus MW2 ΔXV, with S. aureus MW2 and in the assay on S. aureus 8325 (strain 8325) was “S” each time.
With `C[C@@H]1O[C@@H]1P(=O)(O)O` [Fosfomycin], in the assay on S. aureus 8325 ΔXV, the “Susceptibility of 8325 ΔXV mutant compared with parental strain” value is listed as “higher susceptibility”. The “Antimicrobial susceptibility (R/S)” value in the assay with S. aureus 8325 ΔXV, in the assay with S. aureus MW2 ΔXV, with S. aureus MW2 and in the assay with S. aureus 8325 (strain 8325) was “S” throughout. For the same molecule, the figures for the “MIC, Minimal inhibitory concentration” value in the assay with S. aureus 8325 ΔXV and against S. aureus 8325 (strain 8325) were “(≤8)^a” and “(16)^a”, respectively.
For `CC(=O)O[C@H]1C[C@@]2(C)[C@@H](C[C@@H](O)[C@H]3[C@@]4(C)CC[C@@H](O)[C@@H](C)[C@@H]4CC[C@@]32C)/C1=C(\CCC=C(C)C)C(=O)O` [Fusidic acid], the “Antimicrobial susceptibility (R/S)” value in the assay on S. aureus 8325 ΔXV, in the assay with S. aureus MW2 ΔXV, in the assay on S. aureus MW2 and in the assay with S. aureus 8325 (strain 8325) was “S” in each case.
On to `C[C@H]1COc2c(N3CCN(C)CC3)c(F)cc3c(=O)c(C(=O)O)cn1c23` [Levofloxacin], for which the “Antimicrobial susceptibility (R/S)” value with S. aureus 8325 ΔXV, with S. aureus MW2 ΔXV, in the assay with S. aureus MW2 and with S. aureus 8325 (strain 8325) was “S” in each case. The “MIC, Minimal inhibitory concentration” value against S. aureus MW2 ΔXV is “(≤0.12)^a”; in the assay with S. aureus MW2, “(≤0.25)^a”.
Regarding `CC(=O)NC[C@H]1CN(c2ccc(N3CCOCC3)c(F)c2)C(=O)O1` [Linezolid], the “Antimicrobial susceptibility (R/S)” value with S. aureus 8325 ΔXV, with S. aureus MW2 ΔXV, in the assay with S. aureus MW2 and in the assay on S. aureus 8325 (strain 8325) was “S” in each case. For the same molecule, the “Susceptibility of MW2 ΔXV mutant compared with parental strain” value with S. aureus MW2 ΔXV is “more susceptible”. The results for the “MIC, Minimal inhibitory concentration” value against S. aureus MW2 ΔXV and against S. aureus MW2 were “(1)^a” and “(2)^a”, respectively.
Regarding `C/C(=C\C(=O)OCCCCCCCCC(=O)O)C[C@@H]1OC[C@H](C[C@@H]2O[C@H]2[C@@H](C)[C@H](C)O)[C@@H](O)[C@H]1O` [Mupirocin], the “Antimicrobial susceptibility (R/S)” value in the assay on S. aureus 8325 ΔXV, in the assay on S. aureus MW2 ΔXV, in the assay with S. aureus MW2 and with S. aureus 8325 (strain 8325) was “S” throughout.
Consider `O=C1CN(/N=C/c2ccc([N+](=O)[O-])o2)C(=O)N1` [Nitrofurantoin], for which the “Antimicrobial susceptibility (R/S)” value in the assay on S. aureus 8325 ΔXV, in the assay on S. aureus MW2 ΔXV, with S. aureus MW2 and with S. aureus 8325 was “S” in each case. In addition, the entries for the “MIC, Minimal inhibitory concentration” value against S. aureus MW2 ΔXV and with S. aureus MW2 were “(≤16)^a” and “(32)^a”, respectively.
For `Cc1onc(-c2ccccc2)c1C(=O)N[C@@H]1C(=O)N2[C@@H]1SC(C)(C)[C@@H]2C(=O)O` [Oxacillin], the “Antimicrobial susceptibility (R/S)” value in the assay with S. aureus 8325 ΔXV was “S”; in the assay on S. aureus MW2 ΔXV, “R”; with S. aureus MW2, “R”; with S. aureus 8325 (strain 8325), “S”. For the same molecule, in the assay on S. aureus MW2 ΔXV, the “Susceptibility of MW2 ΔXV mutant compared with parental strain” value is listed as “more susceptible”. Moreover, the “MIC, Minimal inhibitory concentration” value with S. aureus MW2 ΔXV is on record as “(2)^a”; against S. aureus MW2, “(≥4)^a”.
`CO[C@H]1/C=C/O[C@@]2(C)Oc3c(C)c(O)c4c(O)c(c(/C=N/N5CCN(C)CC5)c(O)c4c3C2=O)NC(=O)/C(C)=C\C=C\[C@H](C)[C@H](O)[C@@H](C)[C@@H](O)[C@@H](C)[C@H](OC(C)=O)[C@@H]1C` [Rifampicin]: the “Antimicrobial susceptibility (R/S)” value with S. aureus 8325 ΔXV, in the assay on S. aureus MW2 ΔXV, with S. aureus MW2 and in the assay with S. aureus 8325 (strain 8325) was “S” throughout.
Consider `CN(C)c1cc(NC(=O)CNC(C)(C)C)c(O)c2c1C[C@H]1C[C@H]3[C@H](N(C)C)C(O)=C(C(N)=O)C(=O)[C@@]3(O)C(O)=C1C2=O` [Tigecycline], for which the “Antimicrobial susceptibility (R/S)” value with S. aureus 8325 ΔXV, in the assay on S. aureus MW2 ΔXV, in the assay on S. aureus MW2 and in the assay with S. aureus 8325 (strain 8325) was “S” in each case.
On to `NC[C@H]1O[C@H](O[C@H]2[C@H](O)[C@@H](O[C@H]3O[C@H](CO)[C@@H](O)[C@H](N)[C@H]3O)[C@H](N)C[C@@H]2N)[C@H](N)C[C@@H]1O` [Tobramycin], for which the “Antimicrobial susceptibility (R/S)” value in the assay with S. aureus 8325 ΔXV, with S. aureus MW2 ΔXV, in the assay with S. aureus MW2 and in the assay with S. aureus 8325 (strain 8325) was “S” each time.
In the case of `CN[C@H](CC(C)C)C(=O)N[C@H]1C(=O)N[C@@H](CC(N)=O)C(=O)N[C@H]2C(=O)N[C@H]3C(=O)N[C@H](C(=O)N[C@H](C(=O)O)c4cc(O)cc(O)c4-c4cc3ccc4O)[C@H](O)c3ccc(c(Cl)c3)Oc3cc2cc(c3O[C@@H]2O[C@H](CO)[C@@H](O)[C@H](O)[C@H]2O[C@H]2C[C@](C)(N)[C@H](O)[C@H](C)O2)Oc2ccc(cc2Cl)[C@H]1O` [Vancomycin], the “Susceptibility of 8325 ΔXV mutant compared with parental strain” value with S. aureus 8325 ΔXV is listed as “higher susceptibility”. The “Antimicrobial susceptibility (R/S)” value in the assay on S. aureus 8325 ΔXV, in the assay on S. aureus MW2 ΔXV, in the assay on S. aureus MW2 and in the assay on S. aureus 8325 (strain 8325) was “S” each time. The “MIC, Minimal inhibitory concentration” value against S. aureus 8325 ΔXV was “(≤0.5)^a”; in the assay on S. aureus 8325 (strain 8325), “(1)^a”.
As to Gentamicin, the “Antimicrobial susceptibility (R/S)” value in the assay on S. aureus 8325 ΔXV, in the assay with S. aureus MW2 ΔXV, in the assay on S. aureus MW2 and with S. aureus 8325 (strain 8325) was “S” throughout.
